# According to US11447466B2, “Substituted indole compounds useful as inhibitors of TLR7/8/9” (BRISTOL-MYERS SQUIBB COMPANY, priority 2017, dated 2022):
# Columns and labels:
# Format in all cases: cell-based
# human TLR9 = target: T1, human TLR9 (Homo sapiens, UniProt Q9NR96); experiment: TLR9 inhibition reporter assay (HEK-Blue SEAP reporter, ODN2006 stimulation); settings: HEK-Blue cells overexpressing human TLR9, SEAP reporter, ODN2006 5 nM, 22 hour incubation
# T1 construct: host or cells: HEK-Blue cells
# T1 sequence (Q9NR96 26-1032): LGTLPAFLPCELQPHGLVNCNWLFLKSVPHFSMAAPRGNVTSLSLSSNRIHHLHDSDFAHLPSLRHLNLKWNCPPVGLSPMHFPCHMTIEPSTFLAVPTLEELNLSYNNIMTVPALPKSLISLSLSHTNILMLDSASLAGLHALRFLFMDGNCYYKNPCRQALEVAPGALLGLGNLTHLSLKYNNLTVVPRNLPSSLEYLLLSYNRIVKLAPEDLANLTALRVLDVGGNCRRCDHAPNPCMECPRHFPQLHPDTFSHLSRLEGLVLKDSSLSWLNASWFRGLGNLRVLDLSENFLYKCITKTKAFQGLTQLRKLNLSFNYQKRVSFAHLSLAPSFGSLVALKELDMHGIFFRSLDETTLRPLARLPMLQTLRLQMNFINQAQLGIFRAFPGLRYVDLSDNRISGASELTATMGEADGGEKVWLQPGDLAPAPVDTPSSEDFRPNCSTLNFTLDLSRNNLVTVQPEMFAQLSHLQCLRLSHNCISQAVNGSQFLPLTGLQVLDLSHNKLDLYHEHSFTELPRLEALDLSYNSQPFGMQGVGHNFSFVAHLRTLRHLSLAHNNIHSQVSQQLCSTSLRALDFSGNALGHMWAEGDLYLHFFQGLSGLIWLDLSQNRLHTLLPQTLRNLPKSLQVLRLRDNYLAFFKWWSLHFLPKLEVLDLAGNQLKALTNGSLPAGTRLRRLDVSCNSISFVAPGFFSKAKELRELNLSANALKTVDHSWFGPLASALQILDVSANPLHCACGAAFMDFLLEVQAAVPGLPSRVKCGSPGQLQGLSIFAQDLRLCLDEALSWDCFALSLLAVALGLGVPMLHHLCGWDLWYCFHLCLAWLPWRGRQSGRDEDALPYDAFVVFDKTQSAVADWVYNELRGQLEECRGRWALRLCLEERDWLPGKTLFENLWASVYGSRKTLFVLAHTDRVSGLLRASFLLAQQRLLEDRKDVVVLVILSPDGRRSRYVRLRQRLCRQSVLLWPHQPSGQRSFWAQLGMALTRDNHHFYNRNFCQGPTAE
# In short: (§1)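 Screening used HEK-Blue cells overexpressing one human TLR (7, 8 or 9) and an IFN-β minimal promoter–NF-κB/AP-1 SEAP construct. Stimulation lasted 22 h at 37 °C with receptor-specific agonist: gardiquimod, R848 or ODN2006 at 7.5 μM, 15.9 μM and 5 nM.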
# human TLR7 = target: T2, human TLR7 (Homo sapiens, UniProt Q9NYK1); experiment: TLR7 inhibition reporter assay (HEK-Blue SEAP reporter, gardiquimod stimulation); settings: HEK-Blue cells overexpressing human TLR7, SEAP reporter, gardiquimod 7.5 μM, 22 hour incubation
# T2 construct: host or cells: HEK-Blue cells
# T2 sequence (Q9NYK1 27-1049): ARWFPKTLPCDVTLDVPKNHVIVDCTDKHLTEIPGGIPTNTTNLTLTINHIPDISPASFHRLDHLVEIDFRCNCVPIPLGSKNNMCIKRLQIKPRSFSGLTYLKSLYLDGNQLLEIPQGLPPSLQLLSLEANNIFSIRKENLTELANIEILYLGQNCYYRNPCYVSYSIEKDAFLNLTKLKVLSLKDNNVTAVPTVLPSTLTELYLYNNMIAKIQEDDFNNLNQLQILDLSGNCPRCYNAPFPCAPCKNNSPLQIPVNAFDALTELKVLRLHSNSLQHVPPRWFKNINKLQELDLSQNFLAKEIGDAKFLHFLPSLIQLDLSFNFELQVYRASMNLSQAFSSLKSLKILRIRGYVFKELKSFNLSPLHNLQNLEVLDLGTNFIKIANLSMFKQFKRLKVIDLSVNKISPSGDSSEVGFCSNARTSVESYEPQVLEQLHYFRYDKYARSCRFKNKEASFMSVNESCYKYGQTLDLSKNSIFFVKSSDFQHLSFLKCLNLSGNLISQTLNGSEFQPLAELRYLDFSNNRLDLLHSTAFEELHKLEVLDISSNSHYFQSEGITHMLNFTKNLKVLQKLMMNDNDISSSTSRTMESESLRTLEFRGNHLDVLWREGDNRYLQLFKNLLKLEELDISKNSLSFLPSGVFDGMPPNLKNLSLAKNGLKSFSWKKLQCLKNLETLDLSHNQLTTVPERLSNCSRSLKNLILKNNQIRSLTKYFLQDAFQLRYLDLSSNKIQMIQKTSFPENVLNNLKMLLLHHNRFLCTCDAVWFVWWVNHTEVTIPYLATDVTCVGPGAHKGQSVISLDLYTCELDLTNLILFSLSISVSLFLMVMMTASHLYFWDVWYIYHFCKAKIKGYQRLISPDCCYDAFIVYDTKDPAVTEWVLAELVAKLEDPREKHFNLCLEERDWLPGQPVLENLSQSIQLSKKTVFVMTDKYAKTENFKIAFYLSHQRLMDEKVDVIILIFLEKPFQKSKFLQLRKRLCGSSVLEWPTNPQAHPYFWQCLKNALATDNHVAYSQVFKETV
# In short: as §1
# human TLR8 = target: T3, human TLR8 (Homo sapiens, UniProt Q9NR97); experiment: TLR8 inhibition reporter assay (HEK-Blue SEAP reporter, R848 stimulation); settings: HEK-Blue cells overexpressing human TLR8, SEAP reporter, R848 15.9 μM, 22 hour incubation
# T3 construct: host or cells: HEK-Blue cells
# T3 sequence (Q9NR97 27-1041): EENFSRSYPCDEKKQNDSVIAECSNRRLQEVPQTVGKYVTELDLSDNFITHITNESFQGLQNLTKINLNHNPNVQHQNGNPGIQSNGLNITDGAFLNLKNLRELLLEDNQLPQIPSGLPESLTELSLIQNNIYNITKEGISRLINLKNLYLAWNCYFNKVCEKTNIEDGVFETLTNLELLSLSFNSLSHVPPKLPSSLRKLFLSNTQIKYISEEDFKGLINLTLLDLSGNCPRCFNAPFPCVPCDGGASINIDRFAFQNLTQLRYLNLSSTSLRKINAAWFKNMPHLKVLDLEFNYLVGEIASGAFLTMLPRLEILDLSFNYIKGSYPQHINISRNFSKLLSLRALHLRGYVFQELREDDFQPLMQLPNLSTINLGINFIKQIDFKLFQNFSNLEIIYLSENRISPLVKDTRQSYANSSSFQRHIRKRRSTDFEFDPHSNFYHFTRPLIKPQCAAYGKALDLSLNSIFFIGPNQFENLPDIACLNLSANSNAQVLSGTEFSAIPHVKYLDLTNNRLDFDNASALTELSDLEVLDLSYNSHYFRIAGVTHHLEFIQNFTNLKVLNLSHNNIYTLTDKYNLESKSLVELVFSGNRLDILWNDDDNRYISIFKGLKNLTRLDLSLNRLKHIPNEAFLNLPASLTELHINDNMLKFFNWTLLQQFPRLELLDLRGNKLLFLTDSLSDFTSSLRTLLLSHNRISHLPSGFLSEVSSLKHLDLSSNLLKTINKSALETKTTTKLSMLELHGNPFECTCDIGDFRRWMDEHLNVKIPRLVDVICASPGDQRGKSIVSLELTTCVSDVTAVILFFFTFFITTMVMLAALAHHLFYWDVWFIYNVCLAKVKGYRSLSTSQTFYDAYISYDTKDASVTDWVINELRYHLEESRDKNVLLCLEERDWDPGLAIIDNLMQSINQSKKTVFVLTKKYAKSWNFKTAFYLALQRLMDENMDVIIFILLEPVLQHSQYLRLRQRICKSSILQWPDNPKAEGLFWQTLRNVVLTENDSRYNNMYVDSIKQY
# In short: as §1
Structure (SMILES),IC50 (human TLR9) [µM],IC50 (human TLR7) [nM],IC50 (human TLR8) [nM]
"COc1cc(-c2[nH]c3ccc(C4CCN(C5COC5)CC4)cc3c2C(C)C)cn(C)c1=O [Example 202, 5-(3-isopropyl-5-(1-(oxetan-3-yl)piperidin-4-yl)-1H-indol-2-yl)-3-methoxy-1-methylpyridin-2(1H)-one]",5.63,11.3,13.5
"CCn1cc(-c2[nH]c3ccc(C4CCN(C5COC5)CC4)cc3c2C(C)C)cc(C)c1=O [Example 204, 1-ethyl-5-(3-isopropyl-5-(1-(oxetan-3-yl)piperidin-4-yl)-1H-indol-2-yl)-3-methylpyridin-2(1H)-one]",≥ 50,14.6,18
"Cc1c(-c2[nH]c3ccc(C4CCN(C5CCOCC5)CC4)cc3c2C(C)C)nn(C)c(=O)c1C [Example 205, 6-(3-isopropyl-5-(1-(tetrahydro-2H-pyran-4-yl)piperidin-4-yl)-1H-indol-2-yl)-2,4,5-trimethylpyridazin-3(2H)-one]",8.71,501,19.8
"Cc1c(-c2[nH]c3ccc(C4CCN(C5CCOCC5)CC4)cc3c2C(C)C)cn(C)c(=O)c1C [Example 206, 5-(3-isopropyl-5-(1-(tetrahydro-2H-pyran-4-yl)piperidin-4-yl)-1H-indol-2-yl)-1,3,4-trimethylpyridin-2(1H)-one]",4.49,18.9,2.6
"Cc1c(-c2[nH]c3ccc(C4CCN(C5COC5)CC4)cc3c2C(C)C)cn(C)c(=O)c1C [Example 207, 5-(3-isopropyl-5-(1-(oxetan-3-yl)piperidin-4-yl)-1H-indol-2-yl)-1,3,4-trimethylpyridin-2(1H)-one]",46.8,20.8,11.7
"CCn1cc(-c2[nH]c3ccc(C4CCN(C5CCOCC5)CC4)cc3c2C(C)C)c(C)c(C)c1=O [Example 208, 1-ethyl-5-(3-isopropyl-5-(1-(tetrahydro-2H-pyran-4-yl)piperidin-4-yl)-1H-indol-2-yl)-3,4-dimethylpyridin-2(1H)-one]",3.11,31.1,7
"CCn1cc(-c2[nH]c3ccc(C4CCN(C5COC5)CC4)cc3c2C(C)C)c(C)c(C)c1=O [Example 209, 1-ethyl-5-(3-isopropyl-5-(1-(oxetan-3-yl)piperidin-4-yl)-1H-indol-2-yl)-3,4-dimethylpyridin-2(1H)-one]",17.5,34.3,18
"Cc1c(-c2[nH]c3ccc(C4CCN(C(C)C)CC4)cc3c2C(C)C)cn(C)c(=O)c1C [Example 212, 5-(3-isopropyl-5-(1-isopropylpiperidin-4-yl)-1H-indol-2-yl)-1,3,4-trimethylpyridin-2(1H)-one]",12.6,17.1,17.4

# Continued, values first:
IC50 (human TLR9) [µM],IC50 (human TLR7) [nM],IC50 (human TLR8) [nM],Structure (SMILES)
0.959,4,4.4,"COc1cc(-c2[nH]c3ccc(C4CCN(C5CCOCC5)CC4)cc3c2C(C)C)cn(C)c1=O [Example 201, 5-(3-isopropyl-5-(1-(tetrahydro-2H-pyran-4-yl)piperidin-4-yl)-1H-indol-2-yl)-3-methoxy-1-methylpyridin-2(1H)-one]"
16.9,272,28.7,"Cc1c(-c2[nH]c3ccc(C4CCN(C5COC5)CC4)cc3c2C(C)C)nn(C)c(=O)c1C [Example 203, 6-(3-isopropyl-5-(1-(oxetan-3-yl)piperidin-4-yl)-1H-indol-2-yl)-2,4,5-trimethylpyridazin-3(2H)-one]"
5.03,24.7,2.7,"Cc1cc(-c2[nH]c3ccc(C4CCN(C5CCOCC5)CC4)cc3c2C(C)C)c(C)n(C)c1=O [Example 210, 5-(3-isopropyl-5-(1-(tetrahydro-2H-pyran-4-yl)piperidin-4-yl)-1H-indol-2-yl)-1,3,6-trimethylpyridin-2(1H)-one]"
≥ 50,34.6,17.1,"Cc1cc(-c2[nH]c3ccc(C4CCN(C5COC5)CC4)cc3c2C(C)C)c(C)n(C)c1=O [Example 211, 5-(3-isopropyl-5-(1-(oxetan-3-yl)piperidin-4-yl)-1H-indol-2-yl)-1,3,6-trimethylpyridin-2(1H)-one]"
2.91,15.6,16.5,"CCn1cc(-c2[nH]c3ccc(C4CCN(C(C)C)CC4)cc3c2C(C)C)c(C)c(C)c1=O [Example 213, 1-ethyl-5-(3-isopropyl-5-(1-isopropylpiperidin-4-yl)-1H-indol-2-yl)-3,4-dimethylpyridin-2(1H)-one]"
5.69,13.9,7.9,"Cc1cc(-c2[nH]c3ccc(C4CCN(C(C)C)CC4)cc3c2C(C)C)c(C)n(C)c1=O [Example 214, 5-(3-isopropyl-5-(1-isopropylpiperidin-4-yl)-1H-indol-2-yl)-1,3,6-trimethylpyridin-2(1H)-one]"
